In patent publication US10798941B2, “Microbiocidal oxadiazole derivatives” (SYNGENTA PARTICIPATIONS AG, priority 2016, dated 2020):

Experiments:
[1] = test system: Puccinia recondita f. Sp. Tritici; experiment: Puccinia recondita f. sp. tritici / wheat / leaf disc preventative (brown rust); type: in vivo; conditions: foliar, 168 h, 200 ppm in the applied formulation, wheat leaf segments cv. Kanzler, preventative, inoculated 1 day after application, assessed 7 to 9 days after application, vs untreated, read-out: disease control
In short: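 Preventative leaf-segment test: spray application of diluted formulated compound on wheat cv. Kanzler, spore inoculation after 1 day. Percent control relative to untreated segments rated 7 to 9 days post-application, with incubation at 19° C, 75% relative humidity, 12 h photoperiod.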

[2] = test system: Phakopsora pachyrhizi; experiment: Phakopsora pachyrhizi / soybean / leaf disc preventative (Asian soybean rust); type: in vivo; conditions: foliar, 288 h, 200 ppm in the applied formulation, soybean leaf disks, inoculated one day after application, assessed 12 to 14 days after application, vs untreated, read-out: disease control
In short: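 Read-out is percent disease control relative to untreated check discs, assessed once untreated discs show adequate disease, 12 to 14 days after application. Compounds, tested at 200 ppm in the applied formulation, are sprayed onto soybean leaf discs one day before inoculation with a spore suspension.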

[3] = test system: Puccinia recondita f. Sp. Tritici; experiment: Puccinia recondita f. sp. tritici / wheat / leaf disc curative (brown rust); type: in vivo; conditions: foliar, 144 h, 200 ppm in the applied formulation, wheat leaf segments cv. Kanzler, applied 1 day after inoculation, assessed 6 to 8 days after application, vs untreated, read-out: disease control
In short: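 Compounds, prepared from DMSO solutions of at most 10 mg/ml and diluted just before spraying, are applied curatively to inoculated Kanzler wheat leaf segments. Segments are incubated at 19° C and 75% RH in a climate cabinet; disease control relative to untreated is evaluated 6 to 8 days later.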

[4] = test system: Glomerella Lagenarium (Colletotrichum Lagenarium); experiment: Glomerella lagenarium (Colletotrichum lagenarium) liquid culture / cucumber / preventative (anthracnose); type: cell-based; conditions: Colletotrichum orbiculare; 20 ppm in the applied formulation; liquid culture in PDB, 24° C., inhibition of growth measured photometrically 3 to 4 days after application, vs untreated; read-out: disease control
In short: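 Conidia from cryogenic storage were mixed into potato dextrose broth. This was added to compound diluted from DMSO into 0.025% Tween20, tested at 20 ppm. Plates were incubated in the dark at 24 °C and 96% relative humidity, and growth was read photometrically after 2–7 days as % activity versus untreated check.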

[5] = test system: Uromyces viciae-Fabae; experiment: Uromyces viciae-fabae / field bean / leaf disc preventative (faba-bean rust); type: in vivo; conditions: foliar, 288 h, 100 ppm in the applied formulation, field bean leaf discs, inoculated two hours after application, assessed 12 days after application, vs untreated, read-out: disease control
Experimental: Leaf disks or leaf segments of various plant species are cut from plants grown in a greenhouse. The cut leaf disks or segments are placed in multiwell plates (24-well format) onto water agar. The leaf disks are sprayed with a test solution before (preventative) or after (curative) inoculation. Compounds to be tested are prepared as DMSO solutions (max. 10 mg/ml) which are diluted to the appropriate concentration with 0.025% Tween20 just before spraying. The inoculated leaf disks or segments are incubated under defined conditions (temperature, relative humidity, light, etc.) according to the respective test system. A single evaluation of disease level is carried out 3 to 14 days after inoculation, depending on the pathosystem. Percent disease control relative to the untreated check leaf disks or segments is then calculated.
Field bean leaf discs are placed on water agar in multiwell plates (96-well format) and 10 μl of the formulated test compound diluted in acetone and a spreader pipetted onto the leaf disc. Two hours after application leaf discs are inoculated by spraying a spore suspension on the lower leaf surface. The leaf discs are incubated in a climate cabinet at 22° C. with 18 hour day and 70% relative humidity. The activity of a compound is assessed as percent disease control compared to untreated when an appropriate level of disease damage appears in untreated check leaf disks (12 days after application).
The following compounds at 100 ppm in the applied formulation give at least 80% disease control in this test when compared to untreated control leaf discs under the same conditions, which show extensive disease development.

melting point	SMILES	pest or weed control at 200 ppm [1]	pest or weed control at 200 ppm [2]	pest or weed control at 200 ppm [3]	inhibition of growth at 20 ppm [4]	pest or weed control at 100 ppm [5]
36 to 41 °C	FC(F)(F)c1nc(-c2ccc(Cn3cccn3)cc2)no1 [Compound 1.16, 3-[4-(pyrazol-1-ylmethyl)phenyl]-5-(trifluoromethyl)-1,2,4-oxadiazole]	≥ 80%	≥ 80%	≥ 80%	≥ 80%	≥ 80%
45 to 55 °C	FC(F)(F)c1nc(-c2ccc(Cn3ccnc3)cc2)no1 [Compound 1.18, 3-[4-(imidazol-1-ylmethyl)phenyl]-5-(trifluoromethyl)-1,2,4-oxadiazole]	≥ 80%	≥ 80%	≥ 80%	≥ 80%	≥ 80%
72 to 77 °C	FC(F)(F)c1nc(-c2ccc(Cn3cncn3)cc2)no1 [Compound 1.19, 3-[4-(1,2,4-triazol-1-ylmethyl)phenyl]-5-(trifluoromethyl)-1,2,4-oxadiazole]	≥ 80%	≥ 80%	≥ 80%	≥ 80%	≥ 80%

Further lines, the compound ahead of its results:

SMILES	melting point	pest or weed control at 200 ppm [1]	pest or weed control at 200 ppm [2]	pest or weed control at 200 ppm [3]	inhibition of growth at 20 ppm [4]	pest or weed control at 100 ppm [5]
CCn1cc(-c2cn(Cc3ccc(-c4noc(C(F)(F)F)n4)cc3)nn2)c(C)n1 [Compound 1.1, 3-[4-[[4-(1-ethyl-3-methyl-pyrazol-4-yl)triazol-1-yl]methyl]phenyl]-5-(trifluoromethyl)-1,2,4-oxadiazole]	116.2 to 118.2 °C	≥ 80%	≥ 80%	≥ 80%	≥ 80%	≥ 80%
CCn1ncc(-c2cn(Cc3ccc(-c4noc(C(F)(F)F)n4)cc3)nn2)c1C [Compound 1.2, 3-[4-[[4-(1-ethyl-5-methyl-pyrazol-4-yl)triazol-1-yl]methyl]phenyl]-5-(trifluoromethyl)-1,2,4-oxadiazole]	138.3 to 140.1 °C	≥ 80%	≥ 80%	≥ 80%	≥ 80%	≥ 80%
FC(F)(F)c1nc(-c2ccc(Cn3cc(C4CC4)nn3)cc2)no1 [Compound 1.5, 3-[4-[(4-cyclopropyltriazol-1-yl)methyl]phenyl]-5-(trifluoromethyl)-1,2,4-oxadiazole]	115.5 to 117.2 °C	≥ 80%	≥ 80%	≥ 80%	≥ 80%	≥ 80%
Cn1cncc1-c1cn(Cc2ccc(-c3noc(C(F)(F)F)n3)cc2)nn1 [Compound 1.6, 3-[4-[[4-(3-methylimidazol-4-yl)triazol-1-yl]methyl]phenyl]-5-(trifluoromethyl)-1,2,4-oxadiazole]	108.7 to 110.3 °C	≥ 80%	≥ 80%	≥ 80%	≥ 80%	≥ 80%
CC(C)(C)OC(=O)NCc1cn(Cc2ccc(-c3noc(C(F)(F)F)n3)cc2)nn1 [Compound 1.9, tert-butyl N-[[1-[[4-[5-(trifluoromethyl)-1,2,4-oxadiazol-3-yl]phenyl]methyl]triazol-4-yl]methyl]carbamate]	134.7 to 136.9 °C	≥ 80%	≥ 80%	≥ 80%	≥ 80%	≥ 80%
Cc1cc(C)n(Cc2ccc(-c3noc(C(F)(F)F)n3)cc2)n1 [Compound 1.15, 3-[4-[(3,5-dimethylpyrazol-1-yl)methyl]phenyl]-5-(trifluoromethyl)-1,2,4-oxadiazole]	53 to 58 °C	≥ 80%	≥ 80%	≥ 80%	≥ 80%	≥ 80%
